Assay [1] deals with T1, M2R (Homo sapiens, UniProt P08172, M139L/M142L/M1T/M248L/M296L/M368L/M456T/M45L).
T1 construct: We used a full-length construct M2RFL△8 M for complexing with miniGαo and β-arrestin-1; FLAG (N); 8xHis (C); made in house; host or cells: Sf9 insect cells
T1 sequence (P08172 1-466 M1T/M45L/M139L/M142L/M248L/M296L/M368L/M456T): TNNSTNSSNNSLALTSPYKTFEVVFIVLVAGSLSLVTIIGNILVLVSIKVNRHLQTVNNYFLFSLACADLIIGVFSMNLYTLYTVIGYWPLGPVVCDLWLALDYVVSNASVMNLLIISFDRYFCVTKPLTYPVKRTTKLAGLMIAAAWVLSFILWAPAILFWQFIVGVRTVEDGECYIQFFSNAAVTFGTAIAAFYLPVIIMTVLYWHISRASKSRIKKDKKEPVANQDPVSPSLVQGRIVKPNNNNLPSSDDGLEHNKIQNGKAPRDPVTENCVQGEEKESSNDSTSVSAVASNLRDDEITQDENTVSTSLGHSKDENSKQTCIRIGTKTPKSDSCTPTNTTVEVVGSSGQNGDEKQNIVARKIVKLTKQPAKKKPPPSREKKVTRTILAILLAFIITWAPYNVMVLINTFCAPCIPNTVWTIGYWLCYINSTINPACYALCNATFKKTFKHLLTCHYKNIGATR
The class given is biochemical. Conditions: 100 μM Ixo or 1 mM carbachol. As for the experimental part:
We used a full-length construct M2RFL△8 M for complexing with miniGαo and β-arrestin-1. The receptor was purified as described above for cryo-EM sample. Excess GRK2 was mixed with the M2R in a buffer composed of 20 mM HEPES pH 7.5, 100 mM NaCl, 0.01% MNG, 0.003% CHS, 500 μM ATP in the presence and absence of 100 μM Ixo or 1 mM carbachol to initiate the phosphorylation at room temperature. The extent of phosphorylation at various time points (from 0 to 120 min) was evaluated by Pro-Q and Coomassie blue staining. The final phosphorylated receptor (Ixo-bound) was further evaluated by ion-exchange chromatography. The complex formation test was performed as follows: unphosphorylated Ixo-bound M2RFL△8 M or phosphorylated M2RFL△8 M was mixed with miniGαo or β-arrestin-1, respectively and incubated on ice for 30 min. The receptor alone or mixed complex sample were then analyzed by SEC against 20 mM HEPES pH 7.5, 100 mM NaCl, 0.01% MNG, 0.003% CHS in the presence of 10 μM Ixo.

The target of assay [2] is T2, M2R (Homo sapiens, UniProt P08172).
T2 sequence (P08172 1-466): T1 sequence (P08172 1-466 M1T/M45L/M139L/M142L/M248L/M296L/M368L/M456T) with T1M, L45M, L139M, L142M, L248M, L296M, L368M, T456M

For assay [3], the target named is T2, M2R. Nature of the assay: cell-based. Also noted: expressed in transfected cells; host or cells: HEK 293T. Conditions: for Emax: HEK-293T. How it is done: Determination of β-arrestin-2 recruitment was performed applying the PathHunter assay (DiscoverX, Birmingham, U.K.) which is based on fragment complementation of β-galactosidase as described. In detail, HEK293T cells were transfected with the flag-tagged M2 receptor carrying the PKA fragment for enzyme complementation and transferred into 384-well micro plates. […] Determination of chemoluminescence was done with a Clariostar plate reader (BMG, Ortenberg, Germany). […] Normalized curves from three to five individual experiments each done in duplicate were analyzed by non-linear regression applying the algorithms in Prism 8.0 (GraphPad, San Diego, CA) to get dose-response curves representing average EC50 and Emax value.

A further assay concerns the target T3, M2R and GoA (Homo sapiens, UniProt P08172).
T3 construct: FLAG (N); 8xHis (C); made in house; host or cells: Sf9 insect cells (receptor)
Nature of the assay: GTPase-Glo assay (GTP turnover) with purified M2R and GoA. The settings on record: purified wild-type receptor and G-protein. The format is biochemical. How it is done: The receptors for GTPase-Glo^TM assay were expressed and purified as described above and frozen at −80 °C before use. […] The GTPase reaction was incubated at room temperature (22–25 °C) for different times (15–90 min). […] After incubation, 5 μL reconstituted 1xGTPase-Glo^TM Reagent (Promega) was added to the completed GTPase reaction, mixed briefly and incubated with shaking for 30 min at room temperature (22–25 °C) to convert the remaining GTP into ATP. Then 10 μL Detection Reagent (Promega) was added to the system and incubated for 5-10 min at room temperature (22–25 °C) to convert the ATP into luminescent signals. Luminescence intensity was quantified using a Multimode Plate Reader (PerkinElmer) luminescence counter.

The target in assay [4] is M2 muscarinic receptor (M2R), wild type (human) (UniProt P08172).

Positions count from the first letter of the chain named. Values joined by “and” are separate entries in the source; they are usually repeats but may differ in a detail not shown here. Equal values may be shown once. Read-outs that look alike come from different tables or passages of the source.

In the case of `C[N+](C)(C)CCOC(N)=O` [Carbachol, carbachol], the Phosphorylation intensity on M2R [1] (Time 5 min) came to 334.849; on M2R [1] (Time 10 min) it was 686.698; at M2R [1] (Time 15 min) it was 1559.5; on M2R [1] (Time 30 min), 4508.03; on M2R [1] (Time 60 min) it was 11137.8; at M2R [1] (Time 120 min), 15286.
Turning to `Cc1c(Cl)c(OCC(=O)N2CCN(C)CC2)nc2sc(C(=O)NC3CC3)c(N)c12` [LY2119620], the “activation of the receptor by the modulator on its own” value on M2R [2] is listed as “can activate the receptor on its own with low efficacy”. Also, the “IP accumulation as % max effect of acetylcholin” value at M2R [2] (LY2119620 alone log [M] -4) is 59.0% and 70.9% and 76.8% and 52.3% and 51.5% and 62.7% and 67.1%; on M2R [2] (LY2119620 alone log [M] -10), 3.3% and -1.8% and -2.5% and -3.4% and 3.1%. Besides, the “inhibition of maximal G-protein activation of both orthosteric agonists” value at M2R [2] (high concentrations of LY2119620) is given as ~ 10%. The Emax on M2R [3] (read-out: arrestin recruitment as % max effect of acetylcholin, LY2119620 log [M] 3-4) worked out at 46.3%; at M2R [3] (read-out: arrestin recruitment as % max effect of acetylcholin, LY2119620 log [M] 3-5) it was 52.5%; at M2R [3] (read-out: arrestin recruitment as % max effect of acetylcholin, LY2119620 log [M] -5), 42.1%. Moreover, the “arrestin recruitment as % max effect of acetylcholin” value on M2R [3] (LY2119620 log [M] 3-4) was 48.9%; on M2R [3] (LY2119620 log [M] 3-5) it was 50.0% and 48.5%; on M2R [3] (LY2119620 log [M] 3-7), -0.0286% and 2.4%; on M2R [3] (LY2119620 log [M] -4), 58.7% and 38.0% and 68.2% and 60.8% and 51.7%; on M2R [3] (LY2119620 log [M] -5), 33.4% and 43.9% and 30.6% and 32.3%; on M2R [3] (LY2119620 log [M] -6), 10.6% and 7.5% and 6.2% and 2.4% and 3.8%. Moreover, the “arrestin recruitment as % max effect of acetylcholin” value on M2R [3] (LY2119620 log [M] -7) is 2.1% and 1.5% and 2.0% and 0.9% and 2.9%; at M2R [3] (LY2119620 log [M] -8) it was 0.6% and 0.5% and 0.9% and -0.171% and -0.548%; on M2R [3] (LY2119620 log [M] -9), 1.3% and -0.4% and -1.2% and -3.6%. Besides, the “effect on GTP-turnover for both ACh and Ixo” value at M2R and GoA is reported as “significant inhibitory effects”.
In assay [4], “heterotrimeric GoA protein (from UniProt P09471 1-354; P62873 2-340; P59768 1-71) (complex)” gave an increase of the affinity of ACh in [3H]-NMS competition binding on M2R in HDL particles on addition of GoA of 65 fold and an increase of the affinity of Ixo in [3H]-NMS competition binding on M2R in HDL particles on addition of GoA of 27 fold.

(Values after paper PMC9870890 (Nature Communications, 2023).)
